Starred links: 1 amine or outer side, 2 acyl side, 3 side chain; linkers in the order of their positions; H or OH if unused. Residues, ends and D or L forms follow the SMILES beside them. CO = O=C([*:1])[*:2]
Biological target: Furin (Homo sapiens, UniProt P09958)
Test: biochemical

Chain of Furin (P09958 whole entry): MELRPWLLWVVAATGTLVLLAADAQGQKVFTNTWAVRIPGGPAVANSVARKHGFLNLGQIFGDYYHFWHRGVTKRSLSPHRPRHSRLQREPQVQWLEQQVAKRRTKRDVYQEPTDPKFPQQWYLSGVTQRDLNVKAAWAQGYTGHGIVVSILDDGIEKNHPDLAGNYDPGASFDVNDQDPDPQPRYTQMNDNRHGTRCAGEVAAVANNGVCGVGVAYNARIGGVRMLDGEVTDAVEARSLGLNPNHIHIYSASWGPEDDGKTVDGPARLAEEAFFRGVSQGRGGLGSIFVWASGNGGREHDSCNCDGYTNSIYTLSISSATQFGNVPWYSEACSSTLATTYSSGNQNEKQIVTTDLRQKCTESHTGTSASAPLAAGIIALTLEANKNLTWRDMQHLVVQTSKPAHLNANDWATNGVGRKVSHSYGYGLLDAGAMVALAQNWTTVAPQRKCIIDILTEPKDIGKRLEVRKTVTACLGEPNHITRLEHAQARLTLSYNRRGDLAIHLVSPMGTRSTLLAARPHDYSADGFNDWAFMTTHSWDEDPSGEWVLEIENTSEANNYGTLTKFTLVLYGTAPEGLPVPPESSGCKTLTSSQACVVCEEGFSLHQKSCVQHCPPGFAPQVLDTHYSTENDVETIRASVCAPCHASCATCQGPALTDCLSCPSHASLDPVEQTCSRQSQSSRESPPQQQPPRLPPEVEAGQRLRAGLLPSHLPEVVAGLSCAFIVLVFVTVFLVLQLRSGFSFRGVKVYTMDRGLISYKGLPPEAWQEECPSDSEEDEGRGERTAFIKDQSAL

Row | SMILES | IC50
1 | CC(C)[C@H](NC(=O)[C@H](CCCNC(=N)N)NC(=O)N[C@@H](Cc1ccccc1)C(=O)O)C(=O)N[C@H](C=O)CCCNC(=N)N [Antipain] ({Phe-CO}-Arg-Val-Arg-aldehyde) | > 10 µM
2 | CN(C)C(=O)COC(=O)Cc1ccc(OC(=O)c2ccc(NC(=N)N)cc2)cc1 [Camostat] | > 10 µM
